Experimental data reported in paper PMC9295122, “Sialic Acid Derivatives Inhibit SiaT Transporters and Delay Bacterial Growth” (ACS Chemical Biology, 2022).
Read-outs that look alike come from different tables or passages of the source.

Legend:
SaSiaT = SaSiaT (Staphylococcus aureus, UniProt A0A0H2XJ46); experiment: Isothermal titration calorimetry, SaSiaT; assay type: binding
Protocol: The binding thermodynamic analysis performed via isothermal titration calorimetry (ITC) provides insights into dissociation constants (Kd) and the binding driving forces of compounds 3a, 3e, and 3f with PmSiaT and SaSiaT.
Isothermal titration calorimetric experiments were performed on an ITC200 instrument (MicroCal, Northampton, USA) at 25 °C using standard instrument settings (reference power of 6 μcal s^–1, stirring speed of 750 rpm, feedback mode high, and filter period of 2 s). Protein solutions were dialyzed against ITC buffer (50 mM Tris–HCl, 150 mM NaCl, with 0.0174% (w/v) DDM, pH 8.0 at 5 °C) prior to the experiments, and all the samples were prepared using the dialysate buffer to minimize dilution effects. Protein concentrations were determined spectrophotometrically with the specific absorbance at 280 nm employing an extinction coefficient of 76,445 mol^–1 cm^–1 for PmSiaT and 75,750 M^–1 cm^–1 for SaSiaT. […] In a typical experiment, a 0.3–1.0 mM inhibitor solution was titrated to a solution containing 30–50 μM of PmSiaT or 13–20 μM of SaSiaT to ensure >90% saturation. Baseline correction, peak integration, and nonlinear regression analysis of experimental data were performed using the NITPIC (version 1.2.2.)[41] and SEDPHAT (version 12.1b)[42] software packages. The stoichiometry parameter was manually constrained to a value of 1. Experiments were performed in triplicate and the 68% confidence intervals from global fitting of three experiments were calculated as an estimate of the experimental error. All the titration curves can be found in Figures S10–S15.

[1] = Metabolic stability in rat liver microsomes; assay type: in vitro ADME; details: for Metabolic stability in rat microsomes, Exp. 1 / Metabolic stability in rat microsomes, Exp. 2: intrinsic clearance, 1 µM compound; for microsomal CLint at 1 µM: rat liver microsomes, read-out: intrinsic clearance Clint
Protocol: The assay was run in a 96-deep well format and solutions were prepared containing microsomes in phosphate buffer. The microsomes employed were from humans, rats, and mice. The reaction was initiated by addition of NADPH after preincubation at 37 °C with test compounds. The reaction was stopped by the addition of acetonitrile (ACN) at six time points (0, 5, 10, 15, 25, and 45 min), the samples were centrifuged, and the supernatant was diluted to determine the loss of compound by LC–MS/MS. Two incubations per compound per species. For further details regarding working concentrations, volumes, and final concentrations at incubation, refer to the supplementary section (Table S6). […]
Metabolic Metabolic Metabolic stability in stability in stability in Plasma-protein human mouse rat In vitro plasma stability binding by RED
Assay/compo microsome microsome microsome (% compound remaining after (% unbound und s s s 23 h) compound, (µL/min/m (µL/min/m (µL/min/m average n=2) g protein) g protein) g protein)
Exp. Exp. Exp. Exp. Exp. Exp. Hum Mou Ra Do Mini Hum Mou Ra […]
Conc. of W orki ng Vol ume i n Fi nal conc. At sol uti on assay incubation
577 m g / m L520 µ L0. […]

Plasma stability, rat = assay type: in vitro ADME; details: 1 μM, 37 °C
Protocol: The reaction was started by the addition of the compound to blank plasma in LC vials after preincubation at 37 °C. The initial compound concentration was 1 μM. The reaction was stopped by the addition of ACN at seven time points (0, 0.5, 1, 2, 4, 6, and 23 h). Time point 0 h was about 15–20 s after spiking the plasma with the compound. The samples were centrifuged and the supernatant diluted and analyzed by LC–MS/MS to determine the % of compound remaining relative to the initial concentration of compound.

[2] = ITC, 25 °C, read-out: SaSiaT Kd

Sequence of SaSiaT (A0A0H2XJ46 entry or part of it): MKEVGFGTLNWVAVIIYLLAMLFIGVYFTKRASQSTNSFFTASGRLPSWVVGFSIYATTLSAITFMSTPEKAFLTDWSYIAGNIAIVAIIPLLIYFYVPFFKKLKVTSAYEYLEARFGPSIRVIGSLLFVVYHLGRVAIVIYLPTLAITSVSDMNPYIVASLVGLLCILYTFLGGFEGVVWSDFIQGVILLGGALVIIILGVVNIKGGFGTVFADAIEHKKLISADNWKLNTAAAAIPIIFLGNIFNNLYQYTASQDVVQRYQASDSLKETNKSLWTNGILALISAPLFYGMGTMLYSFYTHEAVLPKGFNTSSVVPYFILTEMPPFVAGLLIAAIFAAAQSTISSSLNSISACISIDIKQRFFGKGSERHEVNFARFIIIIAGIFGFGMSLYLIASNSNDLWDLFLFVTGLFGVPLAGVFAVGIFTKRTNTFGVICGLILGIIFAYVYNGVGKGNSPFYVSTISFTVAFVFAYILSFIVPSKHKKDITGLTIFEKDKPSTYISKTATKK

SMILES	SaSiaT -TΔS° (SaSiaT; ITC)	SaSiaT ΔG° (SaSiaT; ITC)	SaSiaT ΔH° (SaSiaT; ITC)	Kd (SaSiaT; [2])	affinity increase for SaSiaT (SaSiaT; compared to Neu5Ac)	Metabolic stability in rat microsomes, Exp. 1 [1]	Metabolic stability in rat microsomes, Exp. 2 [1]	microsomal CLint at 1 µM [1]	In vitro plasma stability (% compound remaining after 23 h) (Plasma stability, rat)	Kd (SaSiaT)
CC(=O)NC1C(OCc2cc(F)cc(F)c2)CC(O)(C(=O)O)OC1C(O)C(O)CO (centres unmarked) [Compound 3e]	-16.5 kcal/mol	-7.36 kcal/mol	9.15 kcal/mol	4.1 ± 2.1 µM	31 fold	< 10 µL/min/mg protein	< 10 µL/min/mg protein	< 10 µL/min/mg	100%	
CC(=O)NC1C(OCc2cc(Br)cc(Br)c2)CC(O)(C(=O)O)OC1C(O)C(O)CO (centres unmarked) [Compound 3f]	-13.1 kcal/mol	-6.55 kcal/mol	6.57 kcal/mol	15.7 ± 7.3 µM		< 10 µL/min/mg protein	< 10 µL/min/mg protein	< 10 µL/min/mg	100%	
CC(=O)N[C@H]1[C@H]([C@H](O)[C@H](O)CO)OC(O)(C(=O)O)C[C@@H]1O (some centres unmarked) [Neu5Ac, 5-N-acetyl neuraminic acid, reference compound]	-14.7 kcal/mol	-5.31 kcal/mol	9.37 kcal/mol							130 ± 35 µM
CC(=O)NC1C(OCc2ccccc2)CC(O)(C(=O)O)OC1C(O)C(O)CO (centres unmarked) [Compound 3a]	-16 kcal/mol	-6.91 kcal/mol	9.08 kcal/mol	8.8 ± 2.7 µM		< 10 µL/min/mg protein	< 10 µL/min/mg protein	< 10 µL/min/mg	100%	
